Experimental data from US8063210B2, “Process and intermediate” (AstraZeneca AB, priority 2006, dated 2011).

Experiments:
[1] = pro-drug conversion to the active moiety in human plasma; type: in vitro ADME
[2] = tested on: human colorectal (SW620, HCT116, Colo205) and lung (A549, Calu-6) tumour xenografts; test: tumour growth inhibition in human tumour xenografts; type: in vivo; conditions: panel of human colorectal (SW620, HCT116, Colo205) and lung (A549, Calu-6) tumour xenografts; with statistical significance

CCN(CCCOc1ccc2c(Nc3cc(CC(=O)Nc4cccc(F)c4)n[nH]3)ncnc2c1)CCOP(=O)(O)O [AZD1152, 2-{ethyl[3-({4-[(5-{2-[(3-fluorophenyl)amino]-2-oxoethyl}-1H-pyrazol-3-yl)amino]quinazolin-7-yl}oxy)propyl]amino}ethyl dihydrogen phosphate]
conversion of pro-drug to active moiety AZD1152 HQPA [1]: rapidly and completely converted | inhibition of tumour growth [2]: inhibit tumour growth
